Consider 15 compounds from patent US12171229B2, “Heteroaryl-triazole and heteroaryl-tetrazole compounds as pesticides” (BAYER AKTIENGESELLSCHAFT, priority 2018, dated 2024).

Type in all cases: in vivo
Assay [1] has as its system Ctenocephalides felis. Briefly: Ctenocephalides felis oral test. To be noted: 48 h, 100 ppm in cattle blood, after 2 days, adult unfed cat fleas. The procedure: Ctenocephalides Felis—Oral Test
Solvent: dimethyl sulfoxide
To produce a suitable preparation of active compound, 10 mg of active compound are dissolved in 0.5 ml solvent, and the concentrate is diluted with cattle blood to the desired concentration.
Approximately 20 adult unfed cat fleas (Ctenocephalides felis) are placed in flea chambers. The blood chamber, sealed with parafilm on the bottom, are filled with cattle blood supplied with compound solution and placed on the gauze covered top of the flea chamber, so that the fleas are able to suck the blood. The blood chamber is heated to 37° C. whereas the flea chamber is kept at room temperature.
After 2 days mortality in % is determined. 100% means all the fleas have been killed; 0% means none of the fleas have been killed.

Assay [2] has as its system Spodoptera frugiperda. Nature of the assay: Spodoptera frugiperda spray test. To be noted: 168 h, after 7 days, larvae on maize leaf sections. The protocol: Spodoptera frugiperda—Spray Test
To produce a suitable preparation of active compound, 1 part by weight of active compound is mixed with the stated amount of solvents and is diluted with water, containing an emulsifier concentration of 1000 ppm, to the desired concentration. Further test concentrations are prepared by dilution with emulsifier containing water.
Maize (Zea mays) leaf sections are sprayed with a preparation of the active ingredient of the desired concentration. Once dry, the leaf sections are infested with fall armyworm larvae (Spodoptera frugiperda).
After 7 days mortality in % is determined. 100% means all caterpillars have been killed and 0% means none of the caterpillars have been killed.

Assay [3] has as its system Myzus persicae. Briefly: Myzus persicae oral test. Particulars: 120 h, 4 ppm, after 5 days. The procedure: Solvent: 100 parts by weight acetone
To produce a suitable preparation of active compound, 1 part by weight of active compound is mixed with the stated amount of solvent, and the concentrate is diluted with water to the desired concentration.
50 μl compound solution is filled in microtiter plates and 150 μl IPL41 insect medium (33%+15% sugar) is added to obtain a total volume of 200 μl per well. Afterwards the plates are sealed with parafilm through which a mixed population of the green peach aphid (Myzus persicae) can suck on the compound preparation.
After 5 days mortality in % is determined. 100% means all aphids have been killed and 0% means none of the aphids have been killed.

In assay [4] the test system is Diabrotica balteata. Nature of the assay: Diabrotica balteata spray test. To be noted: Diabrotica balteata, in Triticum aestivum, 168 h, after 7 days, larvae on wheat seeds, read-out: efficacy (seedlings grown up); for pest or weed control at 80 µg/disc, 250 g/ha: 80 μg/well (=250 g/ha); for pest or weed control at 160 µg/disc, 500 g/ha: 160 μg/well (=500 g/ha). The protocol:
Diabrotica balteata—Spray Test [table] To produce a suitable preparation of active compound, 1 part by weight of active compound is mixed with the stated amount of solvent, and the concentrate is diluted with water, containing an emulsifier concentration of 1000 ppm, to the desired concentration. Further test concentrations are prepared by dilution with emulsifier containing water. Soaked wheat seeds (Triticum aestivum) are placed in a multiple well plate filled with agar and some water and are incubated for 1 day to germinate (5 seeds per well). The germinated wheat seeds are sprayed with a test solution containing the desired concentration of the active ingredient. Afterwards each unit is infected with 10-20 larvae of the banded cucumber beetle (Diabrotica balteata). After 7 days efficacy in % is determined. 100% means all the seedlings have grown up like in the untreated, uninfected control; 0% means none of the seedlings have grown.

In assay [5] the test system is Nezara viridula. Nature of the assay: Nezara viridula spray test. To be noted: 96 h, after 4 days, larvae on barley plants. The protocol:
Nezara viridula—Spray Test
To produce a suitable preparation of active compound, 1 part by weight of active compound is mixed with the stated amount of solvent, and the concentrate is diluted with water, containing an emulsifier concentration of 1000 ppm, to the desired concentration. Further test concentrations are prepared by dilution with emulsifier containing water.
Barley plants (Hordeum vulgare) infested with larvae of the southern green stink bug (Nezara viridula) are sprayed with a test solution containing the desired concentration of the active ingredient.
After 4 days mortality in % is determined. 100% means all the stink bugs have been killed: 0% means none of the stink bugs have been killed.

In assay [6] the test system is Boophilus microplus. Nature of the assay: Boophilus microplus injection test. To be noted: Rhipicephalus microplus, 168 h; 20 μg/animal injected into the abdomen; adult engorged female ticks; egg deposition after 7 days; read-out: efficacy (infertile eggs). The protocol:
Boophilus Microplus—Injection Test Solvent: dimethyl sulfoxide To produce a suitable preparation of active compound, 10 mg of active compound are dissolved in 0.5 ml solvent, and the concentrate is diluted with solvent to the desired concentration. Five adult engorged female ticks (Boophilus microplus) are injected with 1 μl compound solution into the abdomen. The ticks are transferred into replica plates and incubated in a climate chamber. After 7 days egg deposition of fertile eggs is monitored. Eggs where fertility is not visible are stored in a climate chamber till hatching after about 42 days. An efficacy of 100% means all eggs are infertile; 0% means all eggs are fertile.

Structures are written as SMILES.

For `C[C@H](NC(=O)c1cc(Cl)cc(C(F)(F)F)c1)c1ncnn1-c1ccc(C(N)=O)cn1` [Example I-100], in assay [1], the mortality at 100 ppm is 100%. In assay [2], the mortality at 100 g/ha turned out to be 100% and the mortality at 500 g/ha turned out to be 100%. The compound further came in with a mortality at 4 ppm in assay [3] of 100%. For the same compound, in assay [4], the pest or weed control at 80 µg/disc, 250 g/ha was determined as 100% and the pest or weed control at 160 µg/disc, 500 g/ha stood at 100%. Besides, in assay [5], the mortality at 500 g/ha is 100%.

As to `C[C@H](NC(=O)c1cc(Cl)cc(C(F)(F)F)c1)c1ncnn1-c1nc2ccccc2o1` [Example I-057], in assay [1], the mortality at 100 ppm turned out to be 90%. Moreover, in assay [4], the pest or weed control at 80 µg/disc, 250 g/ha worked out at 100% and the pest or weed control at 160 µg/disc, 500 g/ha was 80%. Besides, the pest or weed control at 0.02 mg in assay [6] came to 80%.

As to `C[C@H](NC(=O)c1cc(Cl)cc(C(F)(F)F)c1)c1ncnn1-c1ccc(S(C)(=O)=O)cn1` [Example I-062], in assay [1], the mortality at 100 ppm came to 100%. In assay [2], this compound came in with a mortality at 100 g/ha of 100% and a mortality at 500 g/ha of 100%. Besides, in assay [4], the pest or weed control at 80 µg/disc, 250 g/ha is 100% and the pest or weed control at 160 µg/disc, 500 g/ha came out at 100%. In assay [6], the pest or weed control at 0.02 mg was determined as 100%. This compound came in with a mortality at 500 g/ha in assay [5] of 100%.

In turn, `C[C@H](NC(=O)c1cncc(Br)c1)c1ncnn1-c1ccc(C#N)cn1` [Example I-053] registered a mortality at 100 ppm in assay [1] of 100%. Besides, the mortality at 500 g/ha in assay [2] amounted to 100%. In assay [4], the pest or weed control at 80 µg/disc, 250 g/ha is 100% and the pest or weed control at 160 µg/disc, 500 g/ha came out at 100%. Also, the pest or weed control at 0.02 mg in assay [6] was 100%.

As to `Cc1cc(C(=O)N[C@@H](C)c2ncnn2-c2ccc(C#N)cn2)cc(C(F)(F)F)c1` [Example I-040], the mortality at 100 ppm in assay [1] was determined as 100%. In assay [2], this compound gave a mortality at 100 g/ha of 100% and a mortality at 500 g/ha of 100%. The mortality at 4 ppm in assay [3] was 100%. Moreover, in assay [4], the pest or weed control at 80 µg/disc, 250 g/ha worked out at 100% and the pest or weed control at 160 µg/disc, 500 g/ha was found to be 100%. The pest or weed control at 0.02 mg in assay [6] was determined as 100%.

In the case of `C[C@H](NC(=O)c1cc(Cl)cc(C(F)(F)F)c1)c1ncnn1-c1ccc(NC(=O)C(F)(F)F)cn1` [Example I-072], in assay [2], the mortality at 100 g/ha turned out to be 83% and the mortality at 500 g/ha stood at 100%. Moreover, the mortality at 4 ppm in assay [3] was determined as 90%. In addition, in assay [4], the pest or weed control at 80 µg/disc, 250 g/ha is 100% and the pest or weed control at 160 µg/disc, 500 g/ha stood at 100%.

For the compound `C[C@H](NC(=O)c1cc(C(F)(F)F)cc(C(F)(F)F)c1)c1ncnn1-c1nccs1` [Example I-103], in assay [2], the mortality at 100 g/ha was 100% and the mortality at 500 g/ha worked out at 100%. This compound also displayed a mortality at 4 ppm in assay [3] of 100%. In addition, in assay [4], the pest or weed control at 80 µg/disc, 250 g/ha amounted to 100% and the pest or weed control at 160 µg/disc, 500 g/ha stood at 100%. In assay [5], this compound showed a mortality at 100 g/ha of 100% and a mortality at 500 g/ha of 100%.

The compound `C[C@H](NC(=O)c1cc(Cl)cc(C(F)(F)F)c1)c1ncnn1-c1ccc(S(=O)(=O)C(F)(F)F)cn1` [Example I-027, 3-chloro-5-(trifluoromethyl)-N-[(1S)-1-(1-{5-[(trifluoromethyl)sulfonyl]pyridin-2-yl}-1H-1,2,4-triazol-5-yl)ethyl]benzamide] registered a mortality at 100 ppm in assay [1] of 100%. Besides, in assay [2], the mortality at 100 g/ha came out at 100% and the mortality at 500 g/ha is 100%. Besides, in assay [4], the pest or weed control at 80 µg/disc, 250 g/ha is 100% and the pest or weed control at 160 µg/disc, 500 g/ha turned out to be 100%. For the same compound, in assay [6], the pest or weed control at 0.02 mg turned out to be 100%.

On to `C[C@H](NC(=O)c1cc(Cl)cc(C(F)(F)F)c1)c1ncnn1-c1ccc(OC(F)(F)F)cn1` [Example I-016], for which the mortality at 100 ppm in assay [1] came out at 100%. In addition, in assay [2], the mortality at 100 g/ha turned out to be 100% and the mortality at 500 g/ha came out at 100%. Further, in assay [4], the pest or weed control at 80 µg/disc, 250 g/ha worked out at 100% and the pest or weed control at 160 µg/disc, 500 g/ha came out at 100%. The pest or weed control at 0.02 mg in assay [6] was found to be 100%.

In the case of `C[C@H](NC(=O)c1cc(Cl)cc(C(F)(F)F)c1)c1ncnn1-c1cn(C)nc1C(F)F` [Example I-032], the mortality at 100 ppm in assay [1] is 100%. In assay [4], the pest or weed control at 80 µg/disc, 250 g/ha was found to be 100% and the pest or weed control at 160 µg/disc, 500 g/ha amounted to 100%. Further, the pest or weed control at 0.02 mg in assay [6] amounted to 100%.

As to `C[C@H](NC(=O)c1cc(Cl)cc(C(F)(F)F)c1)c1ncnn1-c1ccc(-n2ccc(C(F)(F)F)n2)cn1` [Example I-045, 3-chloro-5-(trifluoromethyl)-N-[(1S)-1-(1-{5-[3-(trifluoromethyl)-1H-pyrazol-1-yl]pyridin-2-yl}-1H-1,2,4-triazol-5-yl)ethyl]benzamide], the mortality at 100 ppm in assay [1] is 95%. In assay [2], this compound yielded a mortality at 100 g/ha of 100% and a mortality at 500 g/ha of 100%. Also, in assay [4], the pest or weed control at 80 µg/disc, 250 g/ha is 100% and the pest or weed control at 160 µg/disc, 500 g/ha was 80%. In addition, in assay [6], the pest or weed control at 0.02 mg is 100%.

`C[C@H](NC(=O)c1cc(Cl)cc(C(F)(F)F)c1)c1ncnn1-c1cn(C)nc1C(F)(F)F` [Example I-044] showed a mortality at 100 ppm in assay [1] of 100%. Also, in assay [4], the pest or weed control at 80 µg/disc, 250 g/ha worked out at 100% and the pest or weed control at 160 µg/disc, 500 g/ha is 80%. For the same compound, the pest or weed control at 0.02 mg in assay [6] was 100%.

As for `C[C@H](NC(=O)c1cc(Cl)cc(C(F)(F)F)c1)c1ncnn1-c1ccc(C(=O)NC2(C#N)CC2)cn1` [Example I-112], the mortality at 500 g/ha in assay [2] was 83%; in assay [5], 100%. In addition, the mortality at 4 ppm in assay [3] was 90%. Besides, the pest or weed control at 160 µg/disc, 500 g/ha in assay [4] stood at 100%. The mortality at 100 g/ha in assay [5] was 100%.

In the case of `C[C@H](NC(=O)c1cc(Cl)cc(C(F)(F)F)c1)c1ncnn1-c1ccc(NC(=O)c2ccc(F)cc2)cn1` [Example I-036], in assay [1], the mortality at 100 ppm amounted to 100%. In assay [2], this compound had a mortality at 100 g/ha of 100% and a mortality at 500 g/ha of 100%. The mortality at 4 ppm in assay [3] was 100%. Further, in assay [4], the pest or weed control at 80 µg/disc, 250 g/ha is 100% and the pest or weed control at 160 µg/disc, 500 g/ha turned out to be 100%. Besides, the pest or weed control at 0.02 mg in assay [6] was found to be 100%.

Regarding `C[C@H](NC(=O)c1cc(Cl)cc(OC(F)(F)F)c1)c1ncnn1-c1ccc(N)cn1` [Example I-101], the mortality at 500 g/ha in assay [2] is 100%. In assay [3], the mortality at 4 ppm was 100%. Also, in assay [4], the pest or weed control at 80 µg/disc, 250 g/ha came out at 100% and the pest or weed control at 160 µg/disc, 500 g/ha was found to be 100%. For the same compound, the mortality at 500 g/ha in assay [5] stood at 100%.

In general, mortality refers to the percentage killed. A higher mortality goes with fewer survivors.
